Source: US20010049357A1, “Use of Hsp27 as an anti-inflammatory agent” (priority 1999, published 2001)
Like-named read-outs stand apart in the source and are kept apart here.

What was measured:
[1] = system: human MØ; assay: IL-10 production by human MØ (ELISA of culture supernates); format: cell-based
[2] = system: human MØ; assay: TNFα production by human MØ (ELISA of culture supernates); format: cell-based
[3] = system: p38 MAPK; assay: Immunoblot for activation (phosphorylation) of p38 MAPK in human MØ; format: cell-based; conditions: after addition of Hsp 27 2 μg/ml
Description: (§1) Monocytes (1.5×10^6 cells) were cultured in serum free medium for 2 hrs and then stimulated with Hsp 27 (2 μg/ml) for different time periods (1 min to 3 hrs). Western blot analysis was performed, essentially as described previously (29). Briefly, cells were lysed using a buffer consisting of 1% Nonidet P-40, 50 mM HEPES (pH 7.2), 100 mM NaCl, 2 mM EDTA, 1 mM pyrophosphate, 2 mM Na3VO4, 10 mM NaF, 1 mM PMSF, 10 μg/ml leupeptin and 10 μg/ml aprotinin. Postnuclear supernates were harvested after centrifugation of the lysate for 15 min at 14,000 g at 4° C. Equal amounts of postnuclear lysates were boiled for 5 min in the presence of SDS sample buffer (reducing) and subjected to SDS-12% PAGE and then transferred to nitrocellulose membrane (Millipore Corp, Bedford, Mass.) in transfer buffer [25 mM Tris, 192 mM glycine, pH 8.3, 20% (V/V) methanol]. Membranes were first rinsed in TTBS (TBS with 0.1% Tween 20) and then blocked for 1 hr at room temperature in TTBS-5% W/V nonfat dry milk. The membrane was then incubated overnight at 4° C. with antiphospho-p38 MAPK antibody (rabbit polyclonal; New England Biolab) (1:1000 dilution in TTBS-1% BSA). Antibody-antigen complexes were detected with the aid of HRP-conjugated anti-rabbit secondary antibody (1:2000 dilution) (New England Biolab) followed by detection of the bands with ECL reagent (NEN Life Science Products). […]
(§2) To assess the activation (phosphorylation) of three different mitogen-activated protein kinases (MAPK)—p38, p44/42 (Erk 1/2) and p46/54 (SAPK/JNK-1/2) after Hsp 27 addition, we stimulated human MØ at different time points and measured activated p38, Erk 1/2 and JNK 1/2 using the respective antibodies against the phosphorylated forms of the MAPKs. […]

[4] = system: p46/54 (SAPK/JNK-1/2); assay: Immunoblot for activation (phosphorylation) of SAPK/JNK in human MØ; format: cell-based
Description: as §1, §2

[5] = system: immature dendritic cells; assay: Maturation of immature dendritic cells (CD83 expression); format: cell-based
Description: Preferably, the MØ are not brought into contact with Hsp27 before their conversion into immature dendritic cells, because Hsp27 inhibits the conversion. After conversion, however, Hsp27 acts as a potent promoter of maturation by the immature dendritic cells. […] Dendritic cell maturation is detectable as early as 24 hours after initiation of Hsp27 treatment. Preferably, however, Hsp27-induced maturation is allowed to proceed for 48 to 72 hours. One useful indication of dendritic cell maturation is expression of CD83.
(§3) Hsp27 added to MØ cultures at the initiation of conversion inhibited differentiation of MØ to dendritic cells mediated or promoted by the combination of IL-4 plus GM-CSF.

[6] = system: MØ; assay: MØ conversion (differentiation) into immature dendritic cells by IL-4 plus GM-CSF; format: cell-based; conditions: Hsp27 added to MØ cultures at the initiation of conversion
Text: In a preferred method for obtaining dendritic cells in vitro, isolated MØ are are first stimulated to undergo conversion (differentiation) into immature dendritic cells, and then stimulated to mature into fully active or competent dendritic cells. Conversion can be stimulated or promoted in vitro by any effective treatment. For example, conversion can be promoted by treating the MØ with an effective amount of IL-4 and an effective amount of GM-CSF, in accordance with conventional techniques. Typically, the IL-4 and GM-CSF treatment is for approximately 3-4 days. One indication of conversion is expression of CD1a. For guidance concerning in vitro conversion of MØ to immature dendritic cells, see, e.g., Chapius et al., 1997, Eur. J. Immunol. 27:431-441.
as §3

[7] = system: IL-10 mRNA in human monocytes; assay: RNAse protection assay of IL-10 mRNA in human monocytes; format: cell-based
[8] = system: p44/42 (Erk 1/2); assay: Immunoblot for activation (phosphorylation) of Erk 1/2 in human MØ; format: cell-based; conditions: after addition of Hsp 27 2 μg/ml
Description: Monocytes (1.5×10^6 cells) were cultured in serum free medium for 2 hrs and then stimulated with Hsp 27 (2 μg/ml) for different time periods (1 min to 3 hrs). Western blot analysis was performed, essentially as described previously (29). Briefly, cells were lysed using a buffer consisting of 1% Nonidet P-40, 50 mM HEPES (pH 7.2), 100 mM NaCl, 2 mM EDTA, 1 mM pyrophosphate, 2 mM Na3VO4, 10 mM NaF, 1 mM PMSF, 10 μg/ml leupeptin and 10 μg/ml aprotinin. Postnuclear supernates were harvested after centrifugation of the lysate for 15 min at 14,000 g at 4° C. […] Antibody-antigen complexes were detected with the aid of HRP-conjugated anti-rabbit secondary antibody (1:2000 dilution) (New England Biolab) followed by detection of the bands with ECL reagent (NEN Life Science Products). […]
as §2

[9] = system: Normal control monocytes; format: cell-based, human
[10] = system: MAPKAPKinase-2; format: cell-based, human
[11] = after addition of Hsp 27 2 μg/ml

COc1cccc(-c2cc(=O)c3ccccc3o2)c1N [PD98059, reference compound]
effect on Hsp 27 induced MØ IL-10 production [1]: did not have any inhibitory effect
TNFα induced by Hsp 27 blocked ([2]; inhibitor 10 μM for 2 hrs before Hsp 27 2 μg/ml): 68%

polymyxin B [reference compound]
effect on Hsp 27 induced MØ IL-10 production ([1]; polymyxin B 200 U/ml together with Hsp 27 2 μg/ml): could not inhibit

TNFα
increase in IL-10 levels ([1]; exogenous addition of 100 U/ml TNFα): 1.5 fold

C[S+]([O-])c1ccc(-c2nc(-c3ccncc3)c(-c3ccc(F)cc3)[nH]2)cc1 (centres unmarked) [SB203580, reference compound]
inhibition of Hsp 27 induced MØ IL-10 production [1]: approximately 80%
TNFα induced by Hsp 27 blocked [2]: 90%

heat shock protein-27 [Hsp 27]
persistence of p38 MAPK activation [3]: up to 180 min
time at which p38 MAPK phosphorylation was clearly increased [3]: 20 min
time of maximal stimulation of p38 MAPK [3]: 40 min
time at which JNK 1/2 phosphorylation was clearly increased [4, 11]: 20 min
time of maximal stimulation of JNK 1/2 [4, 11]: 40 min
induction of P-p54 JNK ([4]; compared to activation of p38 and Erk): only minimal
effect on maturation of immature DC to mature antigen-presenting DC ([5]; Hsp27 added after initial differentiation into DC (day 4 of induction)): strongly promoted
time at which dendritic cell maturation is detectable ([5]; after initiation of Hsp27 treatment): ≥ 24 h
IL-10(pg/10^6 cells/ml) x ± SEM [1]: 5267 ± 610 pg/10^6 cells/ml
MØ IL-10 production [1]: approximately 3400 pg/ml
increase in IL-10 as compared to SEB+MDP [1]: approximately 3 fold
increase in IL-10 relative to SEB+MDP [1]: 2.5-3.5
optimum concentration for Hsp 27 induced MØ IL-10 production ([1]; dose-dependent, FIG. 1B): 1 to 5 µg/mL
effect on differentiation of MØ to dendritic cells promoted by IL-4 plus GM-CSF [6]: inhibited
IL-10 mRNA levels relative to control MDP+SEB induced levels [7]: 3.2 fold
increase in IL-10 mRNA levels compared to only adherence stimulated MØ ([7]; Hsp 27 2 μg/ml, 8-9 hrs): ~7.2 fold
time at which Erk 1/2 phosphorylation was clearly increased [8]: 20 min
time of maximal stimulation of Erk 1/2 [8]: 40 min
MØ TNFα production ([2]; 16-18 hrs): 483 ± 74 pg/mL
IL-12(pg/10^6 cells/ml) x ± SEM [9]: 3428 ± 1102 pg/10^6 cells/ml
increase in IL-12 as compared to SEB+MDP [9]: approximately 3 fold
increase in IL-12 relative to SEB+MDP [9]: 2.5-3.5
MAPKAPKinase-2 activity versus adherence stimulated untreated MØ lysate [10]: significantly increased
